Source: patent publication US20220226480A1, “LIPID CONJUGATE PREPARED FROM SCAFFOLD MOIETY” (Integrated Nanotherapeutics Inc., priority 2019, published 2022)

How the values were obtained:
[1] = Particle size and polydispersity of LNP containing pro-drug (dynamic light scattering); format: physicochemical; parameters: Size of LNP: unit not given here; conditions: for Particle Diameter (nm) / Polydispersity index (PDI): LNP containing 10 mol % conjugate, primary PC-lipid DMPC
Description: (§1) LNPs were prepared by dissolving 1,2-Distearoyl-sn-glycero-3-phosphocholine (DSPC) or 1,2-dimyristoyl-sn-glycero-3-phosphocholine (DMPC), cholesterol and 1,2-Distearoyl-sn-glycero-3-phosphoethanolamine-Poly(ethylene glycol) (PEG-DSPE) in ethanol. DSPC, DMPC and PEG-DSPE were purchased from Avanti Polar Lipids (Alabaster, Ala.), and cholesterol was obtained from Sigma (St Louis, Mo.).
(§2) Drug-lipid-conjugates INT-D034, INT-D035, INT-D045, INT-D046, INT-D047, INT-D048, INT-D049, INT-D050, INT-D051, INT-D053, INT-D060, INT-D061, INT-D062, INT-D063, INT-D083, INT-D085, INT-D086, INT-D088 and INT-D089 (see FIG. 3 and Example 7 for structures) were dissolved in isopropanol or THF. LNP were prepared by rapidly mixing DSPC or DMPC, cholesterol, drug-lipid conjugate, and PEG-DSPE (in molar ratio of 49/40/10/1) with phosphate-buffered saline (PBS) using a cross-junction mixer. Formulations were dialyzed against PBS to remove residual ethanol. In formulation$ with more than 10 mol % drug-lipid conjugates, the amount of phospholipid or cholesterol was reduced accordingly.
(§3) The physiochemical properties of the LNPs prepared as described above were subsequently characterized. Particle size was determined by dynamic light scattering using a Malvern Zetasizer Nano ZS (Malvern, UK) following buffer exchange into phosphate-buffered saline. Number-weighted size and distribution date was used. Lipid concentrations were determined by measuring total cholesterol using the Cholesterol E enzymatic assay kit from Wako Chemicals USA (Richmond, Va.). The morphology of LNP formulations containing LD-DEX was analyzed by cryogenic-transmission electron microscopy (cryoTEM).

[2] = Encapsulation efficiency / incorporation of pro-drug in LNP; format: physicochemical; conditions: for Encapsulation Efficiency (%): LNP containing 10 mol % conjugate; for % Entrapment: LNP formulations containing pro-drugs (10 mol %, FIG. 6A)
Description: as §1, §2, §3

[3] = LNP, pro-drug concentration 10 %
[4] = LNP, pro-drug concentration 20 %
[5] = LNP, pro-drug concentration 60 %
[6] = LNP, pro-drug concentration 80 %
[7] = LNP, pro-drug concentration 99 %
[8] = LNP formulations containing pro-drugs (10 mol %, FIG. 6A)
[9] = LNP, pro-drug concentration 98 %
[10] = LNP, pro-drug concentration 50 %

Row | Structure (SMILES) | PdI [1, 3] | Size (nm) [1, 3] [nm] | PdI [1, 4] | Size (nm) [1, 4] [nm] | PdI [1, 5] | Size (nm) [1, 5] [nm] | PdI [1, 6] | Size (nm) [1, 6] [nm] | PdI [1, 7] | Size (nm) [1, 7] [nm] | Particle Diameter (nm) [1] [nm] | Polydispersity index (PDI) [1] | PdI [1, 8] | Size of LNP [1, 8] | Encapsulation Efficiency (%) ([2]; primary PC-lipid DMPC) | % Entrapment [2] [%] | also measured
1 | CCCCCC[C@H](C/C=C\CCCCCCCCOC(=O)CC/C(C)=C/Cc1c(O)c2c(c(C)c1OC)COC2=O)OC(=O)CCCCC [INT-D062, (12R)-Hexanoyloxyoleyl (E) 6-(4-hydroxy-6-methoxy-7-methyl-3-oxo-1,3-dihydroisobenzofuran-5-yl)-4-methylhex-4-enoate] | 0.085 | 42 | 0.072 | 39 | 0.212 | 70 | 0.021 | 68 | 0.019 | 93 |  |  |  |  |  |  | 
2 | CCCCC/C=C\C/C=C\C/C=C\C/C=C\CCCC(=O)O[C@@H](C/C=C\CCCCCCCCOC(=O)CCC(=O)OCC(=O)[C@@]1(O)[C@H](C)C[C@H]2[C@@H]3CCC4=CC(=O)C=C[C@]4(C)[C@@]3(F)[C@@H](O)C[C@@]21C)CCCCCC [INT-D051, 2-((8S,9R,10S,11S,13S,14S,16R,17R)-9-fluoro-11,17-dihydroxy-10,13,16-trimethyl-3-oxo-6,7,8,9,10,11,12,13,14,15,16,17-dodecahydro-3H-cyclopenta[a]phenanthren-17-yl)-2-oxoethyl ((R,Z)-12-(arachidonoyloxy)octadec-9-en-1-yl) succinate] |  |  |  |  |  |  | 0.02 | 87 | 0.01 | 93 | 65 | 0.03 | 0.04 | 61 | 84 | 100 | PdI [1, 9]: 0.04; Size (nm) [1, 9]: 56 nm; Encapsulation Efficiency (%) ([2]; primary PC-lipid DSPC): 100%
3 | CCCCC/C=C\C/C=C\CCCCCCCC(=O)O[C@@H](C/C=C\CCCCCCCC(=O)OCC(=O)[C@@]1(O)[C@H](C)C[C@H]2[C@@H]3CCC4=CC(=O)C=C[C@]4(C)[C@@]3(F)[C@@H](O)C[C@@]21C)CCCCCC [INT-D089, 2-((8S,9R,10S,11S,13S,14S,16R,17R)-9-Fluoro-11,17-dihydroxy-10,13,16-trimethyl-3-oxo-6,7,8,9,10,11,12,13,14,15,16,17-dodecahydro-3H-cyclopenta[a]phenanthren-17-yl)-2-oxoethyl (R,Z)-12-linoleoyloxyoleate] |  |  |  |  |  |  |  |  |  |  |  |  | 0.07 | 41 |  | 100 | 
4 | CC/C=C\C/C=C\C/C=C\CCCCCCCC(=O)O[C@@H](C/C=C\CCCCCCCCOC(=O)CCC(=O)OCC(=O)[C@@]1(O)[C@H](C)C[C@H]2[C@@H]3CCC4=CC(=O)C=C[C@]4(C)[C@@]3(F)[C@@H](O)C[C@@]21C)CCCCCC [INT-D049, 2-((8S,9R,10S,11S,13S,14S,16R,17R)-9-fluoro-11,17-dihydroxy-10,13,16-trimethyl-3-oxo-6,7,8,9,10,11,12,13,14,15,16,17-dodecahydro-3H-cyclopenta[a]phenanthren-17-yl)-2-oxoethyl ((R,Z)-12-(linolenoyloxy)octadec-9-en-1-yl) succinate] |  |  |  |  | 0.02 | 61 | 0.03 | 92 | 0.03 | 103 | 68 | 0.05 | 0.11 | 65 | 94 | 100 | PdI [1, 10]: 0.05; Size (nm) [1, 10]: 44 nm; PdI [1, 9]: 0.05; Size (nm) [1, 9]: 69 nm; Encapsulation Efficiency (%) ([2]; primary PC-lipid DSPC): 100%
5 | CCCCCCCCCCCC(=O)O[C@@H](C/C=C\CCCCCCCCOC(=O)CCC(=O)OCC(=O)[C@@]1(O)[C@H](C)C[C@H]2[C@@H]3CCC4=CC(=O)C=C[C@]4(C)[C@@]3(F)[C@@H](O)C[C@@]21C)CCCCCC [INT-D046, (R,Z)-12-(dodecanoyloxy)octadec-9-en-1-yl (2-((8S,9R,10S,11S,13S,14S,16R,17R)-9-fluoro-11,17-dihydroxy-10,13,16-trimethyl-3-oxo-6,7,8,9,10,11,12,13,14,15,16,17-dodecahydro-3H-cyclopenta[a]phenanthren-17-yl)-2-oxoethyl) succinate] |  |  |  |  |  |  |  |  |  |  | 69 | 0.04 | 0.08 | 64 | 93 | 100 | 
6 | CCCCC/C=C\C/C=C\CCCCCCCC(=O)O[C@@H](C/C=C\CCCCCCCCOC(=O)CC/C(C)=C/Cc1c(O)c2c(c(C)c1OC)COC2=O)CCCCCC [INT-D063, (12R)-Linoleoyloxyoleyl (E)-6-(4-hydroxy-6-methoxy-7-methyl-3-oxo-1,3-dihydroisobenzofuran-5-yl)-4-methylhex-4-enoate] | 0.069 | 41 | 0.056 | 41 | 0.149 | 57 | 0.031 | 91 | 0.028 | 119 |  |  |  |  |  |  | 
7 | CCCCCCCCC(OC(=O)CCCCC)C(CCCCCCCC(=O)OCC(=O)[C@@]1(O)[C@H](C)C[C@H]2[C@@H]3CCC4=CC(=O)C=C[C@]4(C)[C@@]3(F)[C@@H](O)C[C@@]21C)OC(=O)CCCCC (stereo partly drawn) [INT-D085, 1-(2-((8S,9R,10S,11S,13,14S,16R,17R)-9-Fluoro-11,17-dihydroxy-10,13,16-trimethyl-3-oxo-6,7,8,9,10,11,12,13,14,15,16,17-dodecahydro-3H-cyclopenta[a]phenanthren-17-yl)-2-oxoethoxy)-1-oxooctadecane-9,10-diyl dihexanoate] | 0.064 | 42 | 0.075 | 39 | 0.059 | 56 | 0.034 | 124 | 0.006 | 135 |  |  | 0.06 | 42 |  | 100 | 
8 | CCCCC/C=C\C/C=C\CCCCCCCC(=O)O[C@@H](C/C=C\CCCCCCCCOC(=O)c1ccccc1OC(C)=O)CCCCCC [INT-D061] | 0.061 | 44 | 0.065 | 39 | 0.186 | 72 | 0.089 | 82 | 0.045 | 123 |  |  |  |  |  |  | 
9 | CCCCCC[C@H](C/C=C\CCCCCCCCOC(=O)c1ccccc1OC(C)=O)OC(=O)CCCCC [INT-D060, (R,Z)-12-Hexanoyloxyoctadec-9-en-1-yl 2-acetoxybenzoate] | 0.06 | 46 | 0.116 | 42 | 0.216 | 71 | 0.042 | 67 | 0.034 | 98 |  |  |  |  |  |  | 
